# According to ChEMBL document CHEMBL1149579, “N-(5-chloro-2-(hydroxymethyl)-N-alkyl-arylsulfonamides as gamma-secretase inhibitors” (Bioorg Med Chem Lett, 2007):
# System: Mus musculus
# Assay: Decrease in amyloid beta level in Tg2576 betaAPP swedish transgenic mouse brain at 500 umol/kg, sc twice a day for 5 days
# Type: functional
# Parameters: scale not given: the % may be the effect or the level left
# Settings: not given
row,SMILES,Activity [%]
1,CCC[C@@H](C)N(c1cc(Cl)ccc1CO)S(=O)(=O)c1ccc(Cl)cc1,38

# System: not listed separately
# Assay: Drug level in Tg2576 betaAPP swedish transgenic mouse brain at 500 umol/kg, sc twice a day for 5 days
# Type: ADME, organism-based
# Settings: read-out: Drug uptake
row,concentration at 120 h [µM],SMILES
1,14,CCC[C@@H](C)N(c1cc(Cl)ccc1CO)S(=O)(=O)c1ccc(Cl)cc1

# System: not listed separately
# Assay: Protein binding in mouse plasma at 10 ug/mL
# Type: ADME, cell-free
# Settings: read-out: PPB
row,fraction unbound at 10 ug/mL,SMILES
1,< 0.01,CCC[C@@H](C)N(c1cc(Cl)ccc1CO)S(=O)(=O)c1ccc(Cl)cc1

# Molecular target: Gamma-secretase
# Assay: Inhibition of gamma secretase-mediated beta-APP cleavage in human H4 cells assessed by measuring Abeta40 production by ELISA
# Type: cell-based
# Settings: not given
row,IC50 [nM],SMILES
1,14,C=CC[C@@H](C)N(c1cc(Cl)ccc1CO)S(=O)(=O)c1ccc(Cl)cc1
2,3700,CCC[C@H](C)N(c1cc(Cl)ccc1CO)S(=O)(=O)c1ccc(C)cc1
3,180,CCCC(C)N(c1cc(Cl)ccc1CO)S(=O)(=O)c1ccc(C#N)cc1 (centres undefined)
4,920,Cc1ccc(S(=O)(=O)N(CCCC(C)C)c2cc(Cl)ccc2CO)cc1
5,720,CCCC(C)N(c1cc(Cl)ccc1CO)S(=O)(=O)c1ccc(C(C)C)cc1 (centres undefined)
6,41,CC(Cc1ccccc1)N(c1cc(Cl)ccc1CO)S(=O)(=O)c1ccc(Cl)cc1 (centres undefined)
7,1300,CCCCN(c1cc(Cl)ccc1CO)S(=O)(=O)c1ccc(C)cc1
8,14,CC(C1CCCC1)N(c1cc(Cl)ccc1CO)S(=O)(=O)c1ccc(Cl)cc1 (centres undefined)
9,240,CCCC(C)N(c1cc(Cl)ccc1CO)S(=O)(=O)c1ccc(Cl)c(Cl)c1 (centres undefined)
10,100,CC[C@@H](C)N(c1cc(Cl)ccc1CO)S(=O)(=O)c1ccc(C)cc1
11,5,CCCC[C@@H](C)N(c1cc(Cl)ccc1CO)S(=O)(=O)c1ccc(Cl)cc1
12,33,CC(C1CCCCC1)N(c1cc(Cl)ccc1CO)S(=O)(=O)c1ccc(Cl)cc1 (centres undefined)
13,4,C[C@H](CCc1ccccc1)N(c1cc(Cl)ccc1CO)S(=O)(=O)c1ccc(Cl)cc1
14,100,CC(c1ccc2ccccc2c1)N(c1cc(Cl)ccc1CO)S(=O)(=O)c1ccc(Cl)cc1 (centres undefined)
15,700,Cc1ccc(S(=O)(=O)N(CC(C)C)c2cc(Cl)ccc2CO)cc1
16,1300,CC[C@H](C)N(c1cc(Cl)ccc1CO)S(=O)(=O)c1ccc(C)cc1
17,72,CCCC(C)N(c1cc(Cl)ccc1CO)S(=O)(=O)c1ccc(C(F)(F)F)cc1 (centres undefined)
18,400,C=C(C)CN(c1cc(Cl)ccc1CO)S(=O)(=O)c1ccc(C)cc1
19,350,Cc1ccc(S(=O)(=O)N(c2cc(Cl)ccc2CO)C(C)CC(C)(C)C)cc1 (centres undefined)
20,2000,Cc1ccc(S(=O)(=O)N(CCC(C)(C)C)c2cc(Cl)ccc2CO)cc1
21,12,CC(C1CCC1)N(c1cc(Cl)ccc1CO)S(=O)(=O)c1ccc(Cl)cc1 (centres undefined)
22,1000,Cc1ccc(S(=O)(=O)N(CC2CCCCC2)c2cc(Cl)ccc2CO)cc1
23,24,CCC[C@@H](C)N(c1cc(Cl)ccc1CO)S(=O)(=O)c1ccc(C)cc1

row,IC50 [nM],SMILES
1,56,CCCC(C)N(c1cc(Cl)ccc1CO)S(=O)(=O)c1ccc(Br)cc1 (centres undefined)
2,140,CCCCN(c1cc(Cl)ccc1CO)S(=O)(=O)c1ccc(Cl)cc1
3,23,CC(C)CC(C)N(c1cc(Cl)ccc1CO)S(=O)(=O)c1ccc(Cl)cc1 (centres undefined)
4,19,CCCC(C)N(c1cc(Cl)ccc1CO)S(=O)(=O)c1ccc(Cl)cc1 (centres undefined)
5,560,CCCC(C)N(c1cc(Cl)ccc1CO)S(=O)(=O)c1ccc(Cl)cc1Cl (centres undefined)
6,66,CCCC(C)N(c1cc(Cl)ccc1CO)S(=O)(=O)c1ccc(F)cc1 (centres undefined)
7,49,CC(C1CC1)N(c1cc(Cl)ccc1CO)S(=O)(=O)c1ccc(Cl)cc1 (centres undefined)
8,1000,CCC(CC)N(c1cc(Cl)ccc1CO)S(=O)(=O)c1ccc(C)cc1
9,7,CC(CCCF)N(c1cc(Cl)ccc1CO)S(=O)(=O)c1ccc(Cl)cc1 (centres undefined)
10,40,CCCC(C)N(c1cc(Cl)ccc1CO)S(=O)(=O)c1ccc(C)cc1 (centres undefined)
11,1300,CCCC(C)N(c1cc(Cl)ccc1CO)S(=O)(=O)c1ccc(OC)cc1 (centres undefined)
12,360,CCCC(C)N(c1cc(Cl)ccc1CO)S(=O)(=O)c1ccc(CC)cc1 (centres undefined)
13,1200,CCCC(C)N(c1cc(Cl)ccc1CO)S(=O)(=O)c1ccccc1 (centres undefined)
14,1100,CCN(c1cc(Cl)ccc1CO)S(=O)(=O)c1ccc(C)cc1
15,190,Cc1ccc(S(=O)(=O)N(c2cc(Cl)ccc2CO)C(C)C2CCCCC2)cc1 (centres undefined)
16,22,CC(c1ccc(Cl)cc1)N(c1cc(Cl)ccc1CO)S(=O)(=O)c1ccc(Cl)cc1 (centres undefined)
17,750,CCCN(c1cc(Cl)ccc1CO)S(=O)(=O)c1ccc(C)cc1
18,25,CC(CCF)N(c1cc(Cl)ccc1CO)S(=O)(=O)c1ccc(Cl)cc1 (centres undefined)
19,140,C/C=C/C(C)N(c1cc(Cl)ccc1CO)S(=O)(=O)c1ccc(Cl)cc1 (centres undefined)
20,> 25000,CCCC(C)N(c1cc(Cl)ccc1CO)S(=O)(=O)c1c(Cl)cc(Cl)cc1Cl (centres undefined)
21,1200,CCCC(C)N(c1cc(Cl)ccc1CO)S(=O)(=O)c1cccc(C)c1 (centres undefined)
22,13,CCN(c1cc(Cl)ccc1CO)S(=O)(=O)c1ccc(Cl)cc1

# System: not listed separately
# Assay: Protein binding in rat plasma at 10 ug/mL
# Type: ADME, cell-free
# Settings: read-out: PPB
row,fraction unbound at 10 ug/mL,SMILES
1,< 0.01,CCC[C@@H](C)N(c1cc(Cl)ccc1CO)S(=O)(=O)c1ccc(Cl)cc1

# System: not listed separately
# Assay: Drug level in Tg2576 betaAPP swedish transgenic mouse plasma at 500 umol/kg, sc twice a day for 5 days
# Type: ADME, organism-based
# Settings: not given
row,concentration at 120 h [µM],SMILES
1,21,CCC[C@@H](C)N(c1cc(Cl)ccc1CO)S(=O)(=O)c1ccc(Cl)cc1

# System: Mus musculus
# Assay: Decrease in amyloid beta level in Tg2576 betaAPP swedish transgenic mouse brain at 500 umol/kg, po after 3 hrs
# Type: functional
# Parameters: scale not given: the % may be the effect or the level left
# Settings: not given
row,SMILES,Activity [%]
1,CCC[C@@H](C)N(c1cc(Cl)ccc1CO)S(=O)(=O)c1ccc(Cl)cc1,25

# System: not listed separately
# Assay: Protein binding in human plasma at 10 ug/mL
# Type: ADME, cell-free
# Settings: read-out: PPB
row,fraction unbound at 10 ug/mL,SMILES
1,< 0.01,CCC[C@@H](C)N(c1cc(Cl)ccc1CO)S(=O)(=O)c1ccc(Cl)cc1

# System: not listed separately
# Assay: Drug level in Tg2576 betaAPP swedish transgenic mouse brain at 500 umol/kg, po after 3 hrs
# Type: ADME, organism-based
# Settings: read-out: Drug uptake
row,concentration at 3 h [µM],SMILES
1,5.2,CCC[C@@H](C)N(c1cc(Cl)ccc1CO)S(=O)(=O)c1ccc(Cl)cc1

# System: not listed separately
# Assay: Drug level in Tg2576 betaAPP swedish transgenic mouse plasma at 500 umol/kg, po after 3 hrs
# Type: ADME, organism-based
# Settings: not given
row,concentration at 3 h [nM],SMILES
1,1600,CCC[C@@H](C)N(c1cc(Cl)ccc1CO)S(=O)(=O)c1ccc(Cl)cc1
